{"source": "patent US7807656B2", "about": "“Pharmaceutical applications of hyaluronic acid preparations” (priority 2001, dated 2010)", "system": "adipose tissue", "assay": "addition of hyaluronic acid to liposuction infiltration solution", "assay_type": "in vivo", "conditions": "added to infiltration solution", "protocol": "Hyaluronic acid can also be added to infiltration solutions which are injected into the tissue prior to a liposuction. These infiltration solutions are usually isotonic or hypotonic salt solutions which can contain additives, for example blood vessel-contracting and/or pain-reducing additives, such as noradrenaline, adrenaline, lidocaine, prilocalne, bicarbonate, corticosteroids, etc. Hyaluronic acid (crosslinked and/or uncrosslinked hyaluronic acid) is advantageously added to these solutions at concentrations of from 0.001 to 1.0% (wt/vol), preferably of from 0.01 to 0.5% (wt/vol), e.g. of about 0.025% (wt/vol). […] Furthermore, structures in the adipose tissue which are worth conserving, such as blood vessels, nerves or connective tissue bands, are spared. Adding the hyaluronic acid also makes the process of liposuction markedly more atraumatic when compared with the conventional procedure. […] This also leads to a reduction in the tissue trauma. All in all, adding hyaluronic acid to the infiltration solution protects the remaining adipose tissue in the body and results in the adipose tissue aspirate being withdrawn in a gentler manner.\nThis is of importance insofar as adipose tissue aspirates can be used as endogenous transplants. […]"}
{"substance": "hyaluronic acid", "values": [{"measurement": "survival of fat cells in the aspirate", "value": "improves the survival of fat cells"}, {"measurement": "growth of transferred tissue at the recipient site", "setting": "aspirate transplanted", "value": "grow more strongly"}]}
